Data taken from BindingDB's records for doi:10.1016/j.chembiol.2011.03.012 (Riken Advanced Science Institute, 2011).

Biological target: DNA topoisomerase 2-alpha (Homo sapiens, UniProt P11388)
Test: Inhibition Assay
Conditions: pH 7.5; 4 °C
Description: In vitro inhibition of TOP2 alpha activity by BNS derivatives.

Chain of DNA topoisomerase 2-alpha (P11388 whole entry): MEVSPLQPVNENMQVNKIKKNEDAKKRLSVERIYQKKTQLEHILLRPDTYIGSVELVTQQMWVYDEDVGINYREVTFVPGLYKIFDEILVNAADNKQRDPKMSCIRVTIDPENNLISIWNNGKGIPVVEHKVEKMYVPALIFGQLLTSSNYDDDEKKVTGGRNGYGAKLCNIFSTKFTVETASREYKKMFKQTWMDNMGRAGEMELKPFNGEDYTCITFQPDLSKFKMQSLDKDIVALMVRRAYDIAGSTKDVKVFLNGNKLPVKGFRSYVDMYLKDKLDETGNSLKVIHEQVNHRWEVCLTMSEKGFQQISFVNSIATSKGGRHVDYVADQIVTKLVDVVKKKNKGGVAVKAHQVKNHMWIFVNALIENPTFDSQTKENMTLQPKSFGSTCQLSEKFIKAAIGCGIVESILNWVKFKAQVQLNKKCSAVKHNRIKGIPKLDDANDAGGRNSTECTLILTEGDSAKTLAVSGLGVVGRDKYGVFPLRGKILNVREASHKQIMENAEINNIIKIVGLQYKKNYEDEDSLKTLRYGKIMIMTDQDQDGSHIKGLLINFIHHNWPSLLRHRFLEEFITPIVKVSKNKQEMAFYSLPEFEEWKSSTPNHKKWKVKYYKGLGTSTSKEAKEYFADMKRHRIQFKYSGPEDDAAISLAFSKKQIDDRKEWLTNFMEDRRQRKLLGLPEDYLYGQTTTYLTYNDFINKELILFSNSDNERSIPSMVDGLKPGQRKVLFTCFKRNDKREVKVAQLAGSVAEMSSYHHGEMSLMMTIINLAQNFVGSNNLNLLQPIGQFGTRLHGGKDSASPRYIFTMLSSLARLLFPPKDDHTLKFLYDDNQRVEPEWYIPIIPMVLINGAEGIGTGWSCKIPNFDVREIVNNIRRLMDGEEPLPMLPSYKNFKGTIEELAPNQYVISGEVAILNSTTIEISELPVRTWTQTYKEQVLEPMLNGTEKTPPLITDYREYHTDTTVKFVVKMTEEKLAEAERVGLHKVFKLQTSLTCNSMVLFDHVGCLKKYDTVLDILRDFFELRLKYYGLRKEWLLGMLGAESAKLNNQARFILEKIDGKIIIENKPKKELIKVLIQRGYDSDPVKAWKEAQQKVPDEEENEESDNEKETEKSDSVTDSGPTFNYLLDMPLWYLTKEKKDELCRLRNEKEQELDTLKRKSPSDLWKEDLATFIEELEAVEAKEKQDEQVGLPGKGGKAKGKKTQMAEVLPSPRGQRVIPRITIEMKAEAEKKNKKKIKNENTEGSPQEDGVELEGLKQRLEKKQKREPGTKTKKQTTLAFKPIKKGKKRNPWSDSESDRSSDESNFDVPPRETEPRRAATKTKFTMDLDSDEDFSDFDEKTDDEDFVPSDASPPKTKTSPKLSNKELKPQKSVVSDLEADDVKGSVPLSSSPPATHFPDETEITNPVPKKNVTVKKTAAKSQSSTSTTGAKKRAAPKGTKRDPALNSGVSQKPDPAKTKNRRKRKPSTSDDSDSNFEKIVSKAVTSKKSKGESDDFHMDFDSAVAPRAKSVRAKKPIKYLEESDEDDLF

Structure (SMILES) | IC50 [µM]
CCCc1cc(=O)oc2c(C(=O)N3CCc4ccccc4C3)c(OC)cc(OC)c12 [BNS-52] | > 100
COC(=O)Cc1cc(=O)oc2c(C(=O)N3CCCc4ccccc43)c(OC)cc(OC)c12 [BNS-65] | 8.2
CCCc1cc(=O)oc2c(C(=O)N3CCCc4ccccc43)c(OC)cc(OC)c12 [BNS-22] | 2.8
CCCc1cc(=O)oc2c(C(=O)N3CCC(Cc4ccccc4)CC3)c(OC)cc(OC)c12 [BNS-53] | > 100
CCCc1cc(=O)oc2c(C(=O)N3CCCCC3)c(OC)cc(OC)c12 [BNS-54] | > 100
